This experiment concerns CEM cells HIV-1 protection, formazan growth assay. Nature of the experiment: NCI AIDS Antiviral Assay. The following applies: for IC50: measured here: growth of uninfected CEM cells. Put shortly: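 Protection of CEM cells against HIV-1 measured as cell growth via soluble formazan read-out, with five concentrations tested on both infected and uninfected cells; failure to protect may reflect toxicity.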

Where “and” joins values, the source holds several entries; their conditions need not be identical. Equal values may be shown once. Calls of active or inactive are those of the source.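 Rule for the calls: active = compounds giving half or more protection of infected cells from virus-caused growth loss, again on retest; inactive = the rest.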 Where a SMILES comes first, the peptide text is derived from it. Where only a bound is given, the exact number is not on record here.

With `CN(N)c1cc(=O)[nH]c(=O)[nH]1`, the EC50 (in general, the concentration that produces a half-maximal response) was over 200 µM and the IC50 – broadly, the point on the concentration scale where inhibition reaches its midpoint – was over 200 µM.
Regarding `O=C1CC(=O)N(CCc2ccncc2)C(=O)N1CCc1ccncc1`, the outcome was inactive and the 50% inhibitory concentration (IC50) was over 200 µM.
For the compound `O=S(=O)(O)c1ccc2c(N=Nc3ccc(/C=C/c4ccc(N=Nc5c(O)ccc6cc(S(=O)(=O)O)ccc56)cc4S(=O)(=O)O)c(S(=O)(=O)O)c3)c(O)ccc2c1`, the EC50 is 7.76 µM and the IC50 came to 97.7 µM.
As to `CN1CCN(c2[nH]c(=O)n(Cc3ccccc3)c(=S)c2C#N)CC1`, the EC50 was over 200 µM and the IC50 was over 200 µM.
With `CCN(CC)c1ccc(C2N3CCCCC3[C@@H]3c4[nH]c5ccccc5c4CCN23)cc1` (stereo not given in full), the EC50 is over 16.2 µM and the IC50 was over 16.2 µM.
For the compound `CC(=Nc1ccc(N(C)C)cc1)c1ccccc1`, the EC50 was over 200 µM and the IC50 turned out to be 28.8 µM.
Taken in the same sequence, the figures for `O=C(CO)CC(=O)C(=O)Nc1ccccc1` were over 151 µM and over 151 µM.
On to `CCCCCC=C(c1cc(Cl)c(OC)c(C(=O)O)c1)c1cc(Cl)c(OC)c(C(=O)O)c1`, for which the EC50 is 129 µM and > 126 µM; the IC50 was 155 µM and 83.2 µM.
As for `CCOC(=O)C1(C/C=C/CBr)CCc2ccccc2C1=O` (stereo not given), the EC50 is over 200 µM and the 50% inhibitory concentration (IC50) came out at 2.14 µM.
With `CC1CN=C(Nc2cccc(F)c2)S1` (stereo not given), the EC50 is 0.191 µM and the IC50 was over 200 µM.
Taken in the same sequence, the figures for `CCOC(=O)c1c2c(nc3c1CCCC3)CCCC2` were over 200 µM and 64.6 µM.
`CCOC(=O)c1c(C)[nH]c(=S)c(C#N)c1-c1ccco1`: the EC50 is over 200 µM and the IC50 was 81.3 µM.
With `CC(=O)OCC1OC(n2c(-c3ccccc3)cc(-c3ccco3)c(C#N)c2=O)C(OC(C)=O)C(OC(C)=O)C1OC(C)=O` (stereo not given), the EC50 was over 17 µM; the IC50 is > 17 µM and 12.6 µM.
Take `CCOC(=O)C(NC(=O)CC)(Nc1ccc(S(=O)(=O)Nc2nc(C)cc(C)n2)cc1)C(F)(F)F` (stereo not given): the EC50 was over 200 µM and the IC50 was over 200 µM.
For the compound `CCCNC(=O)SCc1ccccc1`, the result was inactive.
With `CCOC(=O)C1CC(C(=O)OCC)c2nc3ccccc3nc21` (stereo not given), the EC50 is over 8.71 µM and the IC50 is over 8.71 µM.
For `Cc1cc(C)n(-c2nc3ccccc3c(=O)[nH]2)n1`, the EC50 was over 5.13 µM and the IC50 is 1.07 µM.
The like results for `O=C1CC(=O)N(CCc2ccccc2)S(=O)(=O)N1CCc1ccccc1` were, in that order, over 200 µM and 35.5 µM.
With `O=C(O)c1cc(=O)[nH]c(=O)[nH]1`, the result was inactive.
In the case of `O=C(c1c(O)cc(O)cc1O)C1Cc2ccccc21` (stereo not given), the result was inactive.
As to `CC(=O)OC12CCCCC(CCCC1)O2`, the EC50 is over 200 µM and the IC50 is over 200 µM.
With `CC(C)CC(NC(=O)C(Cc1ccc(O)cc1)NC(=O)C(CO)NC(=O)C(C)NC(=O)C(CO)NC(=O)C(CCC(N)=O)NC(=O)C(NC(=O)C(N)CCC(=O)O)C(C)C)C(=O)NC(CCCN=C(N)N)C(=O)NC(CCCCN)C(=O)O` (stereo not given) (H-EVQSASYLRK-OH; configuration not given here), the outcome was inactive.
With `CN(C(=O)CC(=O)CP(=O)(c1ccccc1)c1ccccc1)c1ccccc1`, the EC50 is over 200 µM and the IC50 stood at 135 µM.
Turning to `COC(c1cccc(C(O)(C(F)(F)F)C(F)(F)F)c1)(C(F)(F)F)C(F)(F)F`, the result was inactive.
Consider `Cc1c(N=O)cc(C(C)C)c(O)c1I`, for which the EC50 is over 200 µM and the IC50 is 27.5 µM.
The like results for `C(=N\N=C\c1ccccn1)/c1ccccn1` were, in that order, over 200 µM and 61.7 µM.
In the case of `COC(=O)C1=CC2OC13CC1CCC3(C2=O)C1(C)C` (stereo not given), the result was inactive.
For the compound `[CH3][Sn]([CH3])([S]CCS(=O)(=O)O)[S]CCS(=O)(=O)O`, the EC50 is over 200 µM and the IC50 stood at 95.5 µM.
`CC(C)(C)[Si](C)(C)OCC1OC(n2ccc(=O)[nH]c2=O)C(O[Si](C)(C)C(C)(C)C)C1C/C=[N+](/[O-])CC1OC(n2ccc(=O)[nH]c2=O)C(O[Si](C)(C)C(C)(C)C)C1O[Si](C)(C)C(C)(C)C` (stereo not given): the EC50 was over 100 µM and the IC50 is over 100 µM.
With `NCCCN(CCCCN(CCCN)C(=O)OCc1ccccc1)C(=O)OCc1ccccc1`, the outcome was inactive.
With `O=C(NC1=C(Cl)C(=O)c2ccccc2C1=O)C(=O)c1c(O)c2ccccc2oc1=O`, the EC50 was over 117 µM and the IC50 was over 117 µM.
With `O=C(Cn1c2c(c3ccccc31)CCCC2)NC1CCCCC1`, the EC50 is over 200 µM and the IC50 is over 200 µM.
Take `O=C1c2ccccc2C2NCCCN12` (stereo not given): the result was inactive.
As to `CCOC(=O)C(O)(NC(=O)NC(O)(C(=O)OCC)C(F)(F)F)C(F)(F)F` (stereo not given), the EC50 is over 200 µM and the IC50 was over 200 µM.
With `O=[N+]([O-])c1ccc(N2N=NC3C4CCC(C4)C32)cc1` (stereo not given), the EC50 is over 95.5 µM and the IC50 amounted to 43.7 µM.
The like results for `CCCCCCCCCCCCCCCCCCNC(=S)/N=C\C1=C(O)c2ccccc2C1=O` were, in that order, over 200 µM and 36.3 µM.
`CCC1([N+](=O)[O-])COP(N)(=O)OC1` (stereo not given): the EC50 is over 427 µM and the IC50 amounted to 31.6 µM.
Taken in the same sequence, the figures for `COC1(C)C(=O)N2C1N(C(C)=O)CC2(C)C` (stereo not given) were over 501 µM and over 501 µM.
As for `CCCCCCCCCCCCCCCCCC(=O)OCC(COC1OC(COS(=O)(=O)O)C(O)C(O)C1O)OC(=O)CCCCCCCCCCCCCCCCC` (stereo not given), the outcome was inactive.
On to `CCOc1ccccc1N=Nc1c(-c2ccccc2)nn(C(=O)CC(=O)Nc2cccc(Cl)c2)c1-c1ccccc1`, for which the EC50 was over 45.7 µM and the IC50 was over 45.7 µM.
In the case of `COc1ccc2c(ccc3c(COC(=O)NC(C)C)c(COC(=O)NC(C)C)n(C)c32)c1`, the EC50 was over 200 µM and the half-inhibitory concentration (IC50) amounted to 0.112 µM.
The like results for `CC1SC2=NC3=C(c4ccccc4C3=O)C(c3ccc(F)cc3)N2C1=O` (stereo not given) were, in that order, over 37.2 µM and over 37.2 µM.
As for `CO[C@H]1ON=C(c2c(C)cc(C)cc2C)[C@@H]1C1(c2ccccc2)ON=C(c2c(C)cc(C)cc2C)O1` (stereo not given in full), the EC50 is over 200 µM.
For `O=[N+]([O-])c1cccc(C2SCc3nc4ccccc4n32)c1` (stereo not given), the EC50 was over 60.3 µM and the IC50 was 37.2 µM.
For the compound `COC(=O)c1ccccc1NC(=O)C(=O)NNC(=O)c1ccncc1`, the EC50 is over 275 µM and the IC50 is over 275 µM.
Take `COc1cccc2c1CCc1c(-c3ccc(F)cc3)cc(-c3ccc4ccccc4n3)nc1-2`: the EC50 is over 200 µM and the 50% inhibitory concentration (IC50) is over 200 µM.
For `OCC(CN1CCCCC1)(CN1CCCCC1)CN1CCCCC1`, the EC50 was over 50.1 µM and the IC50 is over 50.1 µM.
Regarding `O=C(Cn1ccnc1[N+](=O)[O-])c1ccccc1`, the EC50 is over 562 µM and the IC50 is over 562 µM.
Regarding `CCC1OC(=O)CC(O)C(C)C(OC2OC(C)CC(N(C)C)C2O)C(CC=O)CC(C)C(=O)/C=C/C2(C)OC2C1C` (stereo not given), the EC50 is over 200 µM and the IC50 is 33.9 µM.
With `CCCCCCCC(=O)[O-].N.N.N.N.N.[Co+3].[O-][Cl+3]([O-])([O-])[O-]`, the outcome was inactive.
With `Nc1nc(N)n2c(N)nnc2n1`, the EC50 was over 200 µM and the IC50 is over 200 µM.
Turning to `CN(C)CC(CN(C)C)c1cccc(C(CN(C)C)CN(C)C)n1`, the EC50 is over 741 µM and the IC50 is over 741 µM.
With `COc1ccc(N2C(=O)/C(=C(\C)c3cc4ccccc4oc3=O)N=C2c2cc([N+](=O)[O-])ccc2Cl)cc1`, the EC50 was over 10 µM and the IC50 was over 10 µM.
As for `CSC1=C(SC)SC(=C2SC3=C(SC(=C4SCCS4)S3)S2)S1`, the EC50 is over 100 µM and the IC50 is over 100 µM.
On to `C/C(=N/NC(=S)N1CCCCC1)c1ccccc1O`, for which the EC50 was over 200 µM and the IC50 is 91.2 µM.
Turning to `CCCCCCCCCCCCCCCCOCC(CN(C)CCN(C)C)OCCCCCCCCCCCCCCCC` (stereo not given), the outcome was inactive.
`Cc1nc2c(=O)[nH]c(=O)nc-2n(CCO)c1C`: the EC50 is over 100 µM and the IC50 is 40.7 µM.
Regarding `CS(=O)(=O)CS(C)(=O)=O`, the EC50 is over 200 µM and the IC50 was over 200 µM.
Turning to `O=C1C2c3[nH]c4ccccc4c3C3CCC(c4ccccc4)CC3C2C(=O)N1c1ccccc1` (stereo not given), the result was inactive.
`COC(=O)N1CC2CCCC(C2)c2ccccc21` (stereo not given): the EC50 was over 204 µM and the IC50 came out at 186 µM.
`Cc1cc(C)n(-c2nc(C)c(CCO)c(=O)[nH]2)n1`: the outcome was inactive.
For `COC(=O)c1nc(N)[nH]c(=O)c1CCCCCc1c(C(=O)OC)nc(N)[nH]c1=O`, the EC50 is over 17.8 µM and the IC50 was over 17.8 µM.
`CC(=O)/C(=C/n1c(=S)[nH]c2ccccc21)C(=O)Nc1ccccc1C`: the EC50 is over 200 µM and the IC50 was over 200 µM.
As for `CC1=C(C(=O)Nc2ccccc2)C(c2ccc3c(c2)OCO3)C(C(=O)Nc2ccccc2)=C(C)N1`, the EC50 was over 11.2 µM and the IC50 is over 11.2 µM.
`CCOC(=O)c1sc2nc(SC)nc3c2c1NCN3c1ccccc1Cl`: the EC50 was over 200 µM and the IC50 was over 200 µM.
As for `Nc1c(C(=O)O)nnc2cc(Cl)c(Cl)cc12`, the EC50 was over 200 µM and the IC50 was over 200 µM.
On to `N#Cc1c(O)c(N=Nc2ccccc2F)c(=O)n2c1[nH]c1ccccc12`, for which the EC50 was over 200 µM and the IC50 is 18.6 µM.
Taken in the same sequence, the figures for `O=c1c(SCc2ccc(Cl)cc2)c(N2CCOCC2)cnn1-c1ccccc1` were over 63.1 µM and 44.7 µM.
Take `O=C1OC(C(O)CO)C(C(O)CO)OC1=O` (stereo not given): the EC50 is over 200 µM and the IC50 was over 200 µM.
As for `CC1c2c(cc(=O)[nH]c2O)C(=O)N1C` (stereo not given), the EC50 was over 245 µM and the IC50 is over 245 µM.
Regarding `Cc1cccc2c(=O)c3c(O)cc4c(c3n(C)c12)C=CC(C)(C)O4`, the EC50 is over 200 µM and the IC50 was found to be 14.8 µM.
Consider `CO[C@H](C(=O)O[C@H]1C(=O)N2CC[C@@H]3CCC[C@H]1C32C)c1ccccc1` (stereo not given in full), for which the EC50 was over 724 µM and the IC50 is 437 µM.

The record behind these values is PubChem BioAssay AID179 (DTP/NCI, 2004).
